Measured values from US9139581B2 (PORTOLA PHARMACEUTICALS, INC., priority 2008, dated 2015).

The compounds below were run against T1, full length active recombinant SYK enzyme (Homo sapiens, UniProt P43405) (assay: Inhibition of Syk tyrosine phosphorylation activity (LANCE TR-FRET)). Settings: Table 3; 1 nM SYK, 100 μM ATP; read-out: Syk IC50 code.
T1 construct: full length active recombinant SYK enzyme (Millipore, Calif.); purchased Millipore
Format: biochemical
Procedure, shortened: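 The reaction is quenched with buffer holding Eu-anti-phosphotyrosine and streptavidin-APC, and detection runs 1 hr at room temperature. TR-FRET is read and IC50s come from non-linear regression.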

| IC50 [µM] | SMILES |
| --- | --- |
| 0.01 to 0.1 | CC(=O)N1CCN(c2ccc(Nc3nc(NC4CC4)c4c(C#N)c[nH]c4n3)cc2)CC1 [Example 107, 2-(4-(4-acetylpiperazin-1-yl)phenylamino)-4-(cyclopropylamino)-7H-pyrrolo[2,3-d]pyrimidine-5-carbonitrile] |
| > 1 | NC(=O)c1c[nH]c2nc(Nc3ccc4c(c3)CCC(=O)N4)nc(NC3CC3)c12 [Example 108, 4-(cyclopropylamino)-2-(2-oxo-1,2,3,4-tetrahydroquinolin-6-ylamino)-7H-pyrrolo[2,3-d]pyrimidine-5-carboxamide] |
| 0.1 to 1 | COc1ccc(Nc2nc(Nc3ccc4c(c3)CCC(=O)N4)nc3[nH]cc(C#N)c23)cc1 [Example 111, 4-(4-methoxyphenylamino)-2-(2-oxo-1,2,3,4-tetrahydroquinolin-6-ylamino)-7H-pyrrolo[2,3-d]pyrimidine-5-carbonitrile] |
| 0.1 to 1 | CN1C(=O)CCc2cc(Nc3nc(Nc4ccc(F)cc4)c4c(-c5ccncc5)c[nH]c4n3)ccc21 [Example 112, 6-(4-(4-fluorophenylamino)-5-(pyridin-4-yl)-7H-pyrrolo[2,3-d]pyrimidin-2-ylamino)-1-methyl-3,4-dihydroquinolin-2(1H)-one] |
| > 1 | CN1C(=O)CCc2cc(Nc3nc(N)c4c(-c5ccc(F)cc5)c[nH]c4n3)ccc21 [Example 113, 6-(4-Amino-5-(4-fluorophenyl)-7H-pyrrolo[2,3-d]pyrimidin-2-ylamino)-1-methyl-3,4-dihydroquinolin-2(1H)-one] |
| 0.1 to 1 | CN1C(=O)CCc2cc(Nc3nc(NCc4ccccc4)c4c(-c5ccncc5)c[nH]c4n3)ccc21 [Example 114, 6-(4-(benzylamino)-5-(pyridin-4-yl)-7H-pyrrolo[2,3-d]pyrimidin-2-ylamino)-1-methyl-3,4-dihydroquinolin-2(1H)-one] |
| 0.1 to 1 | CN1C(=O)CCc2cc(Nc3nc(NCc4ccccc4)c4c(C#N)c[nH]c4n3)ccc21 [Example 115, 4-(Benzylamino)-2-(1-methyl-2-oxo-1,2,3,4-tetrahydroquinolin-6-ylamino)-7H-pyrrolo[2,3-d]pyrimidine-5-carbonitrile] |
| 0.1 to 1 | NC(=O)CC1CCN(c2nc(Nc3ccc4c(c3)CCC(=O)N4)nc3[nH]ccc23)CC1 [Example 121, 2-(1-(2-(2-oxo-1,2,3,4-tetrahydroquinolin-6-ylamino)-7H-pyrrolo[2,3-d]pyrimidin-4-yl)piperidin-4-yl)acetamide] |

Further lines, the compound ahead of its results:

| SMILES | IC50 [µM] |
| --- | --- |
| N#CCC(=O)N1CCC(Nc2nc(Nc3ccc(C(N)=O)cc3)nc3[nH]ccc23)CC1 [Example 109, 4-(4-(1-(2-cyanoacetyl)piperidin-4-ylamino)-7H-pyrrolo[2,3-d]pyrimidin-2-ylamino)benzamide] | > 1 |
| N#CCC(=O)N1CCCC(Nc2nc(Nc3ccc(C(N)=O)cc3)nc3[nH]ccc23)C1 (centres unmarked) [Example 110, 4-(4-(1-(2-cyanoacetyl)piperidin-3-ylamino)-7H-pyrrolo[2,3-d]pyrimidin-2-ylamino)benzamide] | > 1 |
| CC(=O)N1CCN(c2ccc(Nc3nc(N4CCCC(C(N)=O)C4)c4nc[nH]c4n3)cc2)CC1 (centres unmarked) [Example 118, 1-(2-(4-(4-acetylpiperazin-1-yl)phenylamino)-9H-purin-6-yl)piperidine-3-carboxamide] | 0.1 to 1 |
| CCCCOC(=O)CC1CCN(c2nc(Nc3ccc4c(c3)CCC(=O)N4)nc3[nH]ccc23)CC1 [Example 119, Butyl 2-(1-(2-(2-oxo-1,2,3,4-tetrahydroquinolin-6-ylamino)-7H-pyrrolo[2,3-d]pyrimidin-4-yl)piperidin-4-yl)acetate] | > 1 |
| O=C(O)CC1CCN(c2nc(Nc3ccc4c(c3)CCC(=O)N4)nc3[nH]ccc23)CC1 [Example 120, 2-(1-(2-(2-oxo-1,2,3,4-tetrahydroquinolin-6-ylamino)-7H-pyrrolo[2,3-d]pyrimidin-4-yl)piperidin-4-yl)acetic acid] | > 1 |
| CC(=O)N1CCN(c2ccc(Nc3ncc(Cl)c(N4CCC(CN)CC4)n3)cc2)CC1 [Example 122, 1-(4-(4-(4-(4-(aminomethyl)piperidin-1-yl)-5-chloropyrimidin-2-ylamino)phenyl)piperazin-1-yl)ethanone] | 0.01 to 0.1 |
| CC(=O)N1CCN(c2ccc(Nc3ncc(F)c(N4CCNCC4)n3)cc2)CC1 [Example 124, 1-(4-(4-(5-fluoro-4-(piperazin-1-yl)pyrimidin-2-ylamino)phenyl)piperazin-1-yl)ethanone] | > 1 |
| CC(=O)N1CCN(c2ccc(Nc3ncc(F)c(N4CCN(C(N)=O)CC4)n3)cc2)CC1 [Example 125, 4-(2-(4-(4-acetylpiperazin-1-yl)phenylamino)-5-fluoropyrimidin-4-yl)piperazine-1-carboxamide] | > 1 |
| CC(=O)N1CCN(c2ccc(Nc3ncc(F)c(N4CCC(CC(N)=O)CC4)n3)cc2)CC1 [Example 126, 2-(1-(2-(4-(4-acetylpiperazin-1-yl)phenylamino)-5-fluoropyrimidin-4-yl)piperidin-4-yl)acetamide] | 0.1 to 1 |
| CC(=O)N1CCN(c2ccc(Nc3ncc(F)c(N4CCC(NC(=O)OCc5ccccc5)CC4)n3)cc2)CC1 [Example 127, Benzyl 1-(2-(4-(4-acetylpiperazin-1-yl)phenylamino)-5-fluoropyrimidin-4-yl)piperidin-4-ylcarbamate] | > 1 |
| CC(=O)N1CCN(c2ccc(Nc3ncc(F)c(N4CCC(N)CC4)n3)cc2)CC1 [Example 128, 1-(4-(4-(4-(4-aminopiperidin-1-yl)-5-fluoropyrimidin-2-ylamino)phenyl)piperazin-1-yl)ethanone] | > 1 |
| CC(=O)N1CCN(c2ccc(Nc3ncc(F)c(N4CCC(NC(N)=O)CC4)n3)cc2)CC1 [Example 129, 1-(1-(2-(4-(4-acetylpiperazin-1-yl)phenylamino)-5-fluoropyrimidin-4-yl)piperidin-4-yl)urea] | > 1 |
| CC(=O)N1CCN(c2ccc(Nc3ncc(C(N)=O)c(N4CCC(CNC(N)=O)CC4)n3)cc2)CC1 [Example 130, 2-(4-(4-acetylpiperazin-1-yl)phenylamino)-4-(4-(ureidomethyl)piperidin-1-yl)pyrimidine-5-carboxamide] | > 1 |
| NCC1CCN(c2nc(Nc3ccc(C(=O)O)cc3)ncc2F)CC1 [Example 131, 4-(4-(4-(aminomethyl)piperidin-1-yl)-5-fluoropyrimidin-2-ylamino)benzoic acid] | 0.01 to 0.1 |
| NCC1CCN(c2nc(Nc3ccc4c(c3)CCC(=O)N4)ncc2Br)CC1 [Example 132, 6-(4-(4-(aminomethyl)piperidin-1-yl)-5-bromopyrimidin-2-ylamino)-3,4-dihydroquinolin-2(1H)-one] | 0.01 to 0.1 |
| CN(C)CC1CCN(c2nc(Nc3ccc(C(N)=O)cc3)ncc2F)CC1 [Example 133, 4-(4-(4-((dimethylamino)methyl)piperidin-1-yl)-5-fluoropyrimidin-2-ylamino)benzamide] | > 1 |
| CCOC(=O)CC(N)C1CCN(c2nc(Nc3ccc4c(c3)CCC(=O)N4)ncc2F)CC1 (centres unmarked) [Example 134, Ethyl 3-amino-3-(1-(5-fluoro-2-(2-oxo-1,2,3,4-tetrahydroquinolin-6-ylamino)pyrimidin-4-yl)piperidin-4-yl)propanoate] | 0.1 to 1 |
| COC(=O)C(N)C1CCN(c2nc(Nc3ccc4c(c3)CCC(=O)N4)ncc2F)CC1 (centres unmarked) [Example 135, Methyl 2-amino-2-(1-(5-fluoro-2-(2-oxo-1,2,3,4-tetrahydroquinolin-6-ylamino)pyrimidin-4-yl)piperidin-4-yl)acetate] | > 1 |
